From the supplement of paper PMC11061612

Columns and labels:
Test in all cases: Bliss excess, mean over the matrix (fraction); higher = more synergy
[1] = tested on: BFTC-905 (Bladder Carcinoma)
Summary of the method: (§1)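 Cell lines in DMEM/F12 or RPMI with 10% FBS were plated in 1536-well plates, held 24 hours at 37°C, 5% CO2, then given two-drug dose matrices for 72 hours (DMSO typically 0.2%). Viability was read by CellTiter-Glo 2.0 luminescence and scaled as inhibition from 0 (vehicle wells) to 1 (blank wells). Combination Emax is the second-highest inhibition in the matrix; Bliss excess is observed combination effect minus expected EA + EB − EA·EB, EA and EB being single-agent effects.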

[2] = tested on: BL-41 (Burkitt's Lymphoma)
Summary of the method: as §1

[3] = tested on: DND-41 (T-Lymphoblastic Leukemia)
Summary of the method: as §1

ES1 (Ewing's Sarcoma) = tested on: ES1 (Ewing's Sarcoma)
Summary of the method: as §1

ES8 (Ewing's Sarcoma) = tested on: ES8 (Ewing's Sarcoma)
Summary of the method: as §1

[4] = tested on: GR-ST (B-Lymphoblastic Leukemia)
Summary of the method: as §1

[5] = tested on: HL-60 (Acute Myeloid Leukemia)
Summary of the method: as §1

[6] = tested on: K-562 (Chronic Myelogenous Leukemia)
Summary of the method: as §1

[7] = tested on: KARPAS-45 (T-Lymphoblastic Leukemia)
Summary of the method: as §1

[8] = tested on: KCL-22 (Chronic Myelogenous Leukemia)
Summary of the method: as §1

LN-18 (Glioblastoma) = tested on: LN-18 (Glioblastoma)
Summary of the method: as §1

[9] = tested on: MOLT-16 (T-Lymphoblastic Leukemia)
Summary of the method: as §1

[10] = tested on: MS751 (Cervical Carcinoma)
Summary of the method: as §1

NCI-H2818 (Mesothelioma) = tested on: NCI-H2818 (Mesothelioma)
Summary of the method: as §1

[11] = tested on: P12-ICHIKAWA (T-Lymphoblastic Leukemia)
Summary of the method: as §1

[12] = tested on: PANC-08-13 (Pancreatic Carcinoma)
Summary of the method: as §1

[13] = tested on: SR (Other Blood Carcinomas)
Summary of the method: as §1

[14] = tested on: SU-DHL-8 (B-Cell Non-Hodgkin's Lymphoma)
Summary of the method: as §1

[15] = tested on: SW1417 (Colorectal Carcinoma)
Summary of the method: as §1

WIL2-NS (Non-Cancerous) = tested on: WIL2-NS (Non-Cancerous)
Summary of the method: as §1

Compound | Bliss excess [1] | Bliss excess [2] | Bliss excess [3] | Bliss excess (ES1 (Ewing's Sarcoma)) | Bliss excess (ES8 (Ewing's Sarcoma)) | Bliss excess [4] | Bliss excess [5] | Bliss excess [6] | Bliss excess [7] | Bliss excess [8] | Bliss excess (LN-18 (Glioblastoma)) | Bliss excess [9] | Bliss excess [10] | Bliss excess (NCI-H2818 (Mesothelioma)) | Bliss excess [11] | Bliss excess [12] | Bliss excess [13] | Bliss excess [14] | Bliss excess [15] | Bliss excess (WIL2-NS (Non-Cancerous))
NC1(C(=O)N[C@@H](CCO)c2ccc(Cl)cc2)CCN(c2ncnc3[nH]ccc23)CC1 [Capivasertib] + C[C@@H]1COCCN1C2=NC(=NC(=C2)C3(CC3)[S@](=N)(=O)C)C4=C5C=CNC5=NC=C4 [AZD6738] (first compound max 10 µM, 7x7, partner max 10 µM) | -0.0391 | -0.0552 | -0.0221 | -0.0448 | 0.0038 | -0.035 | -0.04 | -0.0383 | -0.0238 | 0.0044 | -0.0463 | -0.0161 | -0.0156 | -0.0315 | 0.0043 | 0.0128 | 0.016 | -0.0045 | -0.0282 | -0.0529
Cn1cnc2c(F)c(Nc3ccc(Br)cc3Cl)c(C(=O)NOCCO)cc21 [Selumetinib] + CCN(CCO)CCCOc1ccc2c(Nc3cc(CC(=O)Nc4cccc(F)c4)[nH]n3)ncnc2c1 [AZD2811] (first compound max 10 µM, 7x7, partner max 1 µM) | 0.0253 | 0.0338 | 0.0298 | 0.0048 | -0.0089 | 0.0702 | 0.0017 | 0.0352 | -0.0434 | 0.0941 | -0.0192 | -0.0271 | 0.055 | -0.0106 | 0.0216 | -0.0278 | 0.0128 | -0.0216 | 0.058 | 0.0264
NC1(C(=O)N[C@@H](CCO)c2ccc(Cl)cc2)CCN(c2ncnc3[nH]ccc23)CC1 [Capivasertib] + COc1nnc2ccc(N3CCC(c4ccc(OCCN5CCN(C)C(=O)[C@H]5C)cc4)CC3)nn12 [AZD5153] (first compound max 10 µM, 7x7, partner max 1 µM) | -0.0346 | 0.036 | 0.0339 | 0.035 | 0.0894 | -0.0565 | 0.0346 | 0.0061 | 0.0133 | 0.0441 | 0.0494 | 0.0458 | -0.0065 | 0.0025 | 0.0553 | 0.0483 | -0.0166 | 0.0407 | -0.0135 | -0.0933
Cc1cc2ncnn2cc1Nc1ncc2c(n1)n(C1CCOCC1)c(=O)n2C [AZD7648] + C=CCn1c(=O)c2cnc(Nc3ccc(N4CCN(C)CC4)cc3)nc2n1-c1cccc(C(C)(C)O)n1 [AZD1775] (first compound max 10 µM, partner max 1 µM) | 0.022 | -0.0511 | -0.0109 | 0.0181 | -0.0014 | -0.117 | -0.0457 | 0.0017 | 0.0367 | 0.0015 | 0.0161 | 0.0163 | 0.0245 | 0.0563 | – | -0.0266 | -0.0375 | -0.0079 | -0.0328 | -0.0038
CN(CCO)CC[C@H](CSc1ccccc1)Nc1ccc(S(=O)(=O)NC(=O)c2ccc(N3CCC([C@@H](O)c4ccccc4-c4ccc(Cl)cc4)CC3)cc2)cc1S(=O)(=O)C(F)(F)F [AZD4320] + C[C@@H](Nc1cc(F)cc(F)c1)c1cc(C(=O)N(C)C)cc2c(=O)cc(N3CCOCC3)oc12 [AZD8186] (first compound max 1 µM, 7x7, partner max 3 µM) | -0.0221 | 0.0388 | 0.0338 | 0.0591 | 0.0142 | -0.054 | – | 0.0309 | 0.0842 | 0.0307 | 0.0608 | -0.0157 | 0.0982 | -0.0232 | 0.0502 | -0.007 | 0.0428 | -0.0714 | 0.0346 | -0.0709
C=CCn1c(=O)c2cnc(Nc3ccc(N4CCN(C)CC4)cc3)nc2n1-c1cccc(C(C)(C)O)n1 [AZD1775] + C[C@@H]1COCCN1C2=NC(=NC(=C2)C3(CC3)[S@](=N)(=O)C)C4=C5C=CNC5=NC=C4 [AZD6738] (first compound max 1 µM, partner max 10 µM) | 0.0665 | 0.0369 | 0.0181 | 0.0487 | 0.0178 | -0.0217 | 0.0975 | 0.0433 | 0.0465 | 0.0331 | 0.086 | 0.0101 | 0.0075 | -0.0577 | – | -0.0203 | 0.0174 | -0.0202 | -0.0253 | 0.0269
CC(=O)c1c(C)c2cnc(Nc3ccc(N4CCNCC4)cn3)nc2n(C2CCCC2)c1=O [Palbociclib] + CN(CC[C@H](CSC1=CC=CC=C1)NC2=C(C=C(C=C2)S(=O)(=O)NC(=O)C3=CC=C(C=C3)N4CCC(CC4)[C@H](C5=CC=CC=C5C6=CC=C(C=C6)Cl)O)S(=O)(=O)C(F)(F)F)CCO [AZD4320] (first compound max 10 µM, 7x7, partner max 1 µM) | – | – | – | – | – | – | -0.102 | – | -0.0035 | -0.0299 | -0.0081 | -0.0494 | -0.0552 | – | -0.0298 | -0.0459 | – | -0.106 | – | –
COc1cccc2c1C(=O)c1c(O)c3c(c(O)c1C2=O)C[C@@](O)(C(=O)CO)C[C@@H]3O[C@H]1C[C@H](N)[C@H](O)[C@H](C)O1 [Doxorubicin] + Cc1cc2ncnn2cc1Nc1ncc2c(n1)n(C1CCOCC1)c(=O)n2C [AZD7648] (first compound max 1 µM, 7x7, partner max 10 µM) | 0.131 | 0.0714 | 0.115 | 0.119 | 0.125 | 0.0279 | 0.108 | 0.076 | -0.0006 | 0.086 | 0.0386 | 0.143 | 0.135 | -0.0019 | – | -0.0102 | 0.0651 | 0.0145 | 0.0216 | 0.0885
COc1nnc2ccc(N3CCC(c4ccc(OCCN5CCN(C)C(=O)[C@H]5C)cc4)CC3)nn12 [AZD5153] + CN(CC[C@H](CSC1=CC=CC=C1)NC2=C(C=C(C=C2)S(=O)(=O)NC(=O)C3=CC=C(C=C3)N4CCC(CC4)[C@H](C5=CC=CC=C5C6=CC=C(C=C6)Cl)O)S(=O)(=O)C(F)(F)F)CCO [AZD4320] (first compound max 1 µM, 7x7, partner max 1 µM) | – | – | – | – | – | – | -0.0203 | – | 0.0274 | 0.078 | -0.0251 | 0.0258 | 0.0372 | – | 0.0283 | 0.0589 | – | -0.128 | – | –
CCN(CCO)CCCOc1ccc2c(Nc3cc(CC(=O)Nc4cccc(F)c4)[nH]n3)ncnc2c1 [AZD2811] + C[C@@H]1COCCN1C2=NC(=NC(=C2)C3(CC3)[S@](=N)(=O)C)C4=C5C=CNC5=NC=C4 [AZD6738] (first compound max 1 µM, 7x7, partner max 10 µM) | -0.0462 | -0.0647 | -0.018 | 0.0413 | -0.0554 | -0.0298 | -0.0776 | -0.0494 | -0.0944 | 0.0285 | -0.0151 | -0.0021 | 0.041 | -0.0925 | – | -0.0312 | -0.0533 | 0.134 | -0.0709 | 0.0036
CN(C)CCCOc1ccc(-c2ccc3ncc4c(c3c2)n(C2CCOCC2)c(=O)n4C)cn1 [AZD0156] + C[C@@H]1COCCN1C2=NC(=NC(=C2)C3(CC3)[S@](=N)(=O)C)C4=C5C=CNC5=NC=C4 [AZD6738] (first compound max 1 µM, 7x7, partner max 10 µM) | 0.0463 | 0.0704 | -0.0034 | 0.0554 | 0.0169 | -0.0006 | -0.0159 | -0.0079 | 0.0333 | 0.0274 | 0.0505 | -0.0399 | -0.0221 | -0.0511 | – | -0.0376 | 0.015 | 0.0169 | -0.0019 | 0.0131
CCN(CCO)CCCOc1ccc2c(Nc3cc(CC(=O)Nc4cccc(F)c4)[nH]n3)ncnc2c1 [AZD2811] + O=C(c1cc(Cc2n[nH]c(=O)c3ccccc23)ccc1F)N1CCN(C(=O)C2CC2)CC1 [Olaparib] (first compound max 1 µM, 7x7, partner max 10 µM) | -0.0029 | -0.121 | -0.0059 | 0.0749 | -0.0296 | -0.0358 | -0.082 | 0.0216 | -0.115 | 0.0534 | -0.0299 | 0.0395 | -0.0068 | -0.0415 | – | -0.0087 | -0.0064 | 0.102 | -0.0456 | -0.033
C=CCn1c(=O)c2cnc(Nc3ccc(N4CCN(C)CC4)cc3)nc2n1-c1cccc(C(C)(C)O)n1 [AZD1775] + O=C(c1cc(Cc2n[nH]c(=O)c3ccccc23)ccc1F)N1CCN(C(=O)C2CC2)CC1 [Olaparib] (first compound max 1 µM, partner max 10 µM) | -0.0292 | -0.0211 | -0.0025 | -0.0114 | 0.0059 | -0.0334 | -0.0554 | -0.0678 | -0.0302 | -0.0415 | -0.037 | 0.0004 | -0.0021 | 0.0324 | – | -0.0095 | 0.0597 | -0.0157 | -0.0605 | -0.0087
Cc1c2c(nn1C)CSCc1cc(n(C)n1)CSc1cc(c3ccccc3c1)OCCCc1c(C(=O)O)n(C)c3c-2c(Cl)ccc13 [AZD5991] + C[C@@H](Nc1cc(F)cc(F)c1)c1cc(C(=O)N(C)C)cc2c(=O)cc(N3CCOCC3)oc12 [AZD8186] (first compound max 1 µM, 7x7, partner max 3 µM) | -0.012 | -0.0096 | -0.0249 | 0.013 | 0.042 | -0.0352 | – | 0.0096 | 0.0206 | -0.0268 | 0.0079 | -0.0154 | 0.0705 | -0.0343 | -0.0058 | 0.0187 | -0.0278 | -0.0961 | -0.0342 | -0.0749
C[C@@H](c1ccc2nccn2c1)n1nnc2ncc(-c3cnn(C)c3)nc21 [Savolitinib] + CN(CC[C@H](CSC1=CC=CC=C1)NC2=C(C=C(C=C2)S(=O)(=O)NC(=O)C3=CC=C(C=C3)N4CCC(CC4)[C@H](C5=CC=CC=C5C6=CC=C(C=C6)Cl)O)S(=O)(=O)C(F)(F)F)CCO [AZD4320] (first compound max 1 µM, 7x7, partner max 1 µM) | – | – | – | – | – | – | -0.0536 | – | -0.0289 | -0.0201 | -0.0406 | -0.0222 | 0.0315 | – | -0.0097 | -0.0588 | – | 0.0282 | – | –
